Data: patent US20160166531A1, “METHODS AND COMPOSITIONS FOR TREATING CARDIOVASCULAR DISORDERS” (Zafgen, Inc., priority 2010, published 2016)
Values joined by “and” are separate entries in the source; they are usually repeats but may differ in a detail not shown here. Equal values may be shown once.

Experiments:
[1] = test system: C57BL/6 mice conditioned on a high fat diet; assay: Oral fumagillin in mice conditioned on a high fat diet (DIO); format: in vivo
Excerpt: Oral administration of the MetAP2 inhibitor fumagillin causes an increase in circulating ketone bodies, as measured by concentration of beta hydroxybutyrate, which indicates an increase in the breakdown of stored fat and activation of ketogenesis.

FGF-21 = assay: R&D Systems Quantikine Mouse FGF-21 Immunoassay, plasma FGF-21 after ten days of treatment; format: in vivo
Excerpt: In Table 1, animals #1.1, 1.2, 1.3, 2.1, 2.2 and 2.3 were vehicle-treated and animal #3.1, 3.2, 3.3, 4.1, 4.2 and 4.3 were ZGN-201-treated. Sample 3.1 was above the level of quantification.
FIG. 4 indicates the average (±SEM) plasma FGF-21 levels for all study groups.

PCSK9 = assay: Liver mRNA levels of PCSK9 in treated mice; format: in vivo; conditions: C57BL/6 mice, at day 3 and after (FIG. 5)
Excerpt: Liver mRNA levels of PCSK9 were examined in C57BL/6 mice treated with ZGN-201. FIG. 5 depicts the hepatic PCSK9 mRNA (% of vehicle control) vs. days of treatment with ZGN-201.

C-Reactive Protein (CRP) = assay: Serum C-Reactive Protein in obese patients, intravenous twice weekly for 26 days; format: in vivo, human
Description: (§1) The compound was intravenously administered to each patient of a cohort (except for a placebo cohort) twice weekly for 26 days. Each of patients in the three non-placebo cohorts received either 0.1 mg/m^2 (cohort 1); 0.3 mg/m^2 (cohort 2); or 0.9 mg/m^2 (cohort 3) doses of the compound at the time of administration. The trial was conducted under the appropriate government and medical supervision.

thrombomodulin = assay: Thrombomodulin levels in obese patients; format: in vivo, human; conditions: obese patients of Example 6 (FIG. 7)
Excerpt: The expression of another cardiovascular risk marker, thrombomodulin, was examined in the patients described in Example 6. […] Similarly to Example 6, the reduction in thrombomodulin was independent of effects on metabolic parameters and body weight.

[2] = test system: low density lipoprotein cholesterol (LDLc); conditions: obese patients of Example 6 (FIG. 8)
Description: as §1

[3] = test system: apolipoprotein(a) (apoLp(a)); assay: Apolipoprotein(a) levels in obese patients; format: in vivo, human; conditions: obese patients of Example 6 (FIG. 9)
Excerpt: The expression of another cardiovascular risk marker, apolipoprotein(a) (apoLp(a)), was examined in the patients described in Example 6. […] Similarly to Example 6, the reduction in apoLp(a) was independent of effects on body weight.

total cholesterol [4] = assay: Total cholesterol in human subjects with elevated total cholesterol; format: in vivo; conditions: human subjects with initial fasting total cholesterol in excess of 180 mg/dl, twice weekly for four weeks, n=10, p=0.018 (FIG. 3)
Description: Human subjects with initial fasting total cholesterol levels in excess of 180 mg/dl were administered Compound A twice weekly for a total of four weeks of treatment.

total cholesterol [5] = assay: Total cholesterol in rats after four weeks of treatment; format: in vivo; design: Total cholesterol levels, Mean: unit not given here; conditions: for Total cholesterol levels, Mean: vehicle mean 86.7
Description: Rats were administered 1 or 3 mg/kg fumagillol daily for a total of four weeks of treatment.

[6] = 1 mg/kg po daily for four weeks
[7] = 3 mg/kg po daily for four weeks

CO[C@@H]1[C@H](OC(=O)/C=C/C=C/C=C/C=C/C(=O)O)CC[C@]2(CO2)[C@H]1[C@@]1(C)O[C@@H]1CC=C(C)C [fumagillin]
hydroxybutyrate concentration at longer time points ([1]; DIO C57BL/6 mice, diet admixture 1 mg/kg daily for 250 days (FIG. 1C)): Increased hydroxybutyrate concentration persisted | beta hydroxybutyrate concentrations ([1]; DIO C57BL/6 mice, oral gavage 0.3 or 3 mg/kg daily for 10 days (FIG. 1A)): increase | free fatty acid concentration ([1]; DIO C57BL/6 mice, oral gavage 0.3 or 3 mg/kg daily for 10 days (FIG. 1B)): without an increase | sensitivity to insulin ([1]; mice on a high fat diet): normalizes | Fasted glucose and insulin levels, insulin-glucose product ([1]; mice on high fat diet, 1 mg/kg fumagillin, versus age-matched lean mice and untreated DIO mice (FIG. 2A-2C)): more similar to that of age-matched lean mice than that of untreated mice on a high fat diet | FGF-21 absolute numbers, Average of duplicates (single animals) (FGF-21; animals 3.1 to 4.3, one value per animal, listed as ZGN-201): AQL and 2248.25 pg/ml and 2514.66 pg/ml and 2166.60 pg/ml and 1194.64 pg/ml and 3597.58 pg/ml | FGF-21 MEAN of treated group (FGF-21; vehicle group mean 991.47): 2344.34 pg/mL | hepatic PCSK9 mRNA (% of vehicle control) (PCSK9): reduced PCSK9 expression

CO[C@@H]1[C@H](OC(=O)C=Cc2ccc(OCCN(C)C)cc2)CC[C@]2(CO2)[C@H]1[C@@]1(C)O[C@@H]1CC=C(C)C.O=C(O)C(=O)O [6-O-(4-dimethylaminoethoxyl)cinnamoyl fumagillol oxalate]
subjects with elevated CRP concentrations (above 3.0 μg/ml) reduced to levels within the normal range (C-Reactive Protein (CRP); 0.9 mg/m^2 dose level, by the 26th day of treatment, p<0.01): six out of eight | levels of C-Reactive Protein (CRP) in patients' serum (C-Reactive Protein (CRP); obese patients, iv twice weekly for 26 days, 0.1, 0.3 or 0.9 mg/m^2 (FIG. 6)): decrease | thrombomodulin levels (thrombomodulin): decreases | LDL-c levels [2]: decreases | apoLp(a) levels [3]: decreases

CO[C@@H]1[C@H](OC(=O)C=Cc2ccc(OCCN(C)C)cc2)CC[C@]2(CO2)[C@H]1[C@@]1(C)O[C@@H]1CC=C(C)C [Compound A, O-(4-dimethylaminoethoxycinnamoyl)fumagillol]
Total cholesterol levels (total cholesterol [4]): reduced

CO[C@@H]1[C@H](O)CC[C@]2(CO2)[C@H]1[C@@]1(C)O[C@@H]1CC=C(C)C [Fumagillol, fumagillol]
Total cholesterol levels, % of vehicle (total cholesterol [5]; [6]): 76.5% | Total cholesterol levels, Mean (total cholesterol [5]; [6]): 66.3 | Total cholesterol levels, % of vehicle (total cholesterol [5]; [7]): 63.7% | Total cholesterol levels, Mean (total cholesterol [5]; [7]): 55.2
